Measurements: paper PMC10994559 (PLOS Neglected Tropical Diseases, 2024)
Where “and” joins values, the source holds several entries; their conditions need not be identical. Equal entries are not always repeated.

How the values were obtained:
[1] = system: Plasmodium falciparum; set-up: method as in PMID 35749989; conditions: cited from earlier work
[2] = system: T. brucei BSF proteome; assay: Label-free LC-MS/MS proteomics after PHT-39 exposure; type: cell-based, Trypanosoma brucei
Procedure: 4 x 10^7 cells were harvested by centrifugation (1000*g) after 48 h from cultures in logarithmic growth phase and washed thrice with PBS. Samples were subjected to lysis, tryptic digest and reductive alkylation using standard procedures. LC-MS/MS was performed by the OMICS Proteomics Facility at Charles University Biocev on an UltiMate 3000 RSLCnano System (Thermo Fisher Scientific) coupled to a Orbitrap Fusion mass spectrometer (Thermo Fisher Scientific). Mass spectra were analyzed by label-free quantification using MaxQuant version 2.1.0.0 [30] searching the T. brucei brucei 927 annotated protein database (release 57) from TriTrypDB [31]. Minimum peptide length was set at seven amino acids and false discovery rates of 0.01 were calculated at the levels of peptides, proteins, and modification sites based on the number of hits against the reversed sequence database. When the identified peptide sequence set of one protein contained the peptide set of another protein, these two proteins were assigned to the same protein group. P-values were calculated, applying t-test–based statistics using Perseus. Proteomics data have been deposited to the ProteomeXchange Consortium via the PRIDE partner repository with the data set identifier PXD043204.

[3] = system: T. brucei BSF; assay: Cell cycle (nuclei/kinetoplast count, DAPI) after PHT-39 treatment; type: cell-based, Trypanosoma brucei; conditions: 1 x EC50, 24 h
Procedure: 10^6 cells were harvested by centrifugation (1000*g) after 24 h from cultures in logarithmic growth phase and washed once with serum-free HMI-9. After fixation in 2% formaldehyde cell were applied to a glass slide and mounted with Vectashield Antifade mounting medium with 4′,6-diamidino2-phenylindole (DAPI) for fluorescence microscopy imaging on a Leica TCS SP8 WLL SMD-FLIM inverted confocal microscope. The number of nuclei (N) and kinetoplasts (K) per cell were then counted for 100 cells in each respective replicate (n = 3), allowing determination of cell cycle stage.

SMILES: CC[C@@H](C)[C@H](c1nc2ccccc2n1Cc1cn(-c2ccc(C(F)(F)F)cc2)nn1)N1C(=O)c2ccccc2C1=O [PHT-39]
- Mitochondrial membrane potential, P. falciparum trophozoites ([1]; 3 h exposure at EC50 0.64 μM): collapse of the mitochondrial membrane potential
- EC50 ([1]; read-out: EC50 Plasmodium falciparum intraerythrocyte stages): 640 nM and 600 nM
- Abundance change FAZ localized protein Tb927.1.4280 ([2]; 3.9 μM (1× EC50), 48 h): 0.62 fold
- Abundance change Hsp104 homolog Tb927.2.5980 ([2]; 3.9 μM (1× EC50), 48 h): 1.4 fold
- Abundance change PIP39 (Tb927.9.6090) ([2]; 3.9 μM (1× EC50), 48 h): 1.6 fold
- Abundance change axonemal protein SAXO (Tb927.8.6240) ([2]; 3.9 μM (1× EC50), 48 h): 0.65 fold
- PHT-39 ratio (protein abundance) ([2]; protein 2-oxoglutarate dehydrogenase E1 component, Tb927.11.1450): 1.73
- PHT-39 ratio (protein abundance) ([2]; protein 2-oxoglutarate dehydrogenase E1 component, Tb927.11.9980): 1.93
- PHT-39 ratio (protein abundance) ([2]; protein ACS1, Tb927.7.6180): - ∞
- PHT-39 ratio (protein abundance) ([2]; protein Aconitase, Tb927.10.14000): 1.39
- PHT-39 ratio (protein abundance) ([2]; protein CIF1 (TOEFAZ1), Tb927.11.15800): 0.46
- PHT-39 ratio (protein abundance) ([2]; protein CIF3, Tb927.10.13100): - ∞
- PHT-39 ratio (protein abundance) ([2]; protein CIF4, Tb927.10.8240): 0.88
- PHT-39 ratio (protein abundance) ([2]; protein F1 alpha, Tb927.7.7430, Tb927.7.7420): 1.31
- PHT-39 ratio (protein abundance) ([2]; protein F1 beta, Tb927.3.1380): 1.33
- PHT-39 ratio (protein abundance) ([2]; protein F1 gamma, Tb927.10.180): 1.23
- PHT-39 ratio (protein abundance) ([2]; protein F1 p18, Tb927.5.1710): 1.90
- PHT-39 ratio (protein abundance) ([2]; protein FPRC, Tb927.10.6360): 0.72
- PHT-39 ratio (protein abundance) ([2]; protein Fo 8, Tb927.4.3450): ∞
- PHT-39 ratio (protein abundance) ([2]; protein Fo ATBTB1, Tb927.10.520): 1.48
- PHT-39 ratio (protein abundance) ([2]; protein Fo ATBTB3, Tb927.11.6250): 1.53
- PHT-39 ratio (protein abundance) ([2]; protein Fo ATBTB4, Tb927.10.9830): 1.36
- PHT-39 ratio (protein abundance) ([2]; protein Fo ATBTB6, Tb927.11.1270): 1.40
- PHT-39 ratio (protein abundance) ([2]; protein Fo ATBTB12, Tb927.5.3090): 3.78
- PHT-39 ratio (protein abundance) ([2]; protein Fo OSCP, Tb927.10.8030): 2.93
- PHT-39 ratio (protein abundance) ([2]; protein Fo d, Tb927.5.2930): 1.35
- PHT-39 ratio (protein abundance) ([2]; protein Fo e, Tb927.11.600): 1.09
- PHT-39 ratio (protein abundance) ([2]; protein Fo f, Tb927.3.1690): 1.36
- PHT-39 ratio (protein abundance) ([2]; protein Fo i/j, Tb927.3.2880): 1.66
- PHT-39 ratio (protein abundance) ([2]; protein Fo k, Tb927.7.840): 3.17
- PHT-39 ratio (protein abundance) ([2]; protein Glutamate dehydrogenase, Tb927.9.5900): 1.53
- PHT-39 ratio (protein abundance) ([2]; protein PIP39, Tb927.9.6090): 1.62
- PHT-39 ratio (protein abundance) ([2]; protein PPDK, Tb927.11.6280): ∞
- PHT-39 ratio (protein abundance) ([2]; protein Proline dehydrogenase, Tb927.7.210): 1.66
- PHT-39 ratio (protein abundance) ([2]; protein SAXO, Tb927.8.6240): 0.65
- PHT-39 ratio (protein abundance) ([2]; protein Tb927.1.4280): 0.63
- Difference (LFQ intensity treated vs untreated) ([2]; protein Tb927.10.4770, phosphatidylinositol-4-phosphate 5-kinase, putative): 2.042
- Difference (LFQ intensity treated vs untreated) ([2]; protein Tb927.4.3450, Mitochondrial ATP synthase subunit, putative): 5.909
- Difference (LFQ intensity treated vs untreated) ([2]; protein Tb927.6.980;Tb927.6.970;Tb927.6.960;Tb927.6.1020;Tb927.6.1010, cysteine peptidase, Cathepsin L-like): 5.36
- Difference (LFQ intensity treated vs untreated) ([2]; protein Tb927.7.2660, zinc finger protein family member, putative): 3.448
- Difference (LFQ intensity treated vs untreated) ([2]; protein Tb927.9.12700, phospholipase A1, putative): 3.03
- PHT-39 ratio (protein abundance) ([2]; protein citrate synthase, Tb927.10.13430): 1.66
- PHT-39 ratio (protein abundance) ([2]; protein isocitrate dehydrogenase, Tb927.8.3690): 1.46
- PHT-39 ratio (protein abundance) ([2]; protein mitochondrial malate dehydrogenase, Tb927.10.2560): 1.32
- PHT-39 ratio (protein abundance) ([2]; protein succinyl-CoA ligase beta-chain, Tb927.10.7410): 1.79
- PHT-39 ratio (protein abundance) ([2]; protein succinyl-CoA synthetase alpha subunit, Tb927.3.2230): 1.72
- Proportion of 2K1N cells, decreased to [3]: approximately 57%
- Proportion of 2K2N cells, decreased to [3]: approximately 28%
